Assay results published in ChEMBL document CHEMBL4321842 (J Med Chem, 2019).

Columns and labels:
[1] = biological target: Ribosomal protein S6 kinase alpha-6 (Homo sapiens, UniProt Q9UK32); assay: Inhibition of RSK4 kinase domain 1 (unknown origin) expressed in human HEK293 cells incubated for 2 hrs followed by NanoBRET NanoGlo Substrate addition by NanoBRET assay; assay type: cell-based
[2] = biological target: Mitogen-activated protein kinase 11 (Homo sapiens, UniProt Q15759); assay: Inhibition of p38-beta (unknown origin) expressed in human HEK293 cells incubated for 2 hrs followed by NanoBRET NanoGlo Substrate addition by NanoBRET assay; assay type: cell-based
[3] = biological target: T1, Discoidin domain-containing receptor 2 (Homo sapiens, UniProt Q16832); assay: Inhibition of DDR2 (unknown origin) expressed in human HEK293 cells incubated for 2 hrs followed by NanoBRET NanoGlo Substrate addition by NanoBRET assay; assay type: cell-based
T1 sequence (Q16832 whole entry): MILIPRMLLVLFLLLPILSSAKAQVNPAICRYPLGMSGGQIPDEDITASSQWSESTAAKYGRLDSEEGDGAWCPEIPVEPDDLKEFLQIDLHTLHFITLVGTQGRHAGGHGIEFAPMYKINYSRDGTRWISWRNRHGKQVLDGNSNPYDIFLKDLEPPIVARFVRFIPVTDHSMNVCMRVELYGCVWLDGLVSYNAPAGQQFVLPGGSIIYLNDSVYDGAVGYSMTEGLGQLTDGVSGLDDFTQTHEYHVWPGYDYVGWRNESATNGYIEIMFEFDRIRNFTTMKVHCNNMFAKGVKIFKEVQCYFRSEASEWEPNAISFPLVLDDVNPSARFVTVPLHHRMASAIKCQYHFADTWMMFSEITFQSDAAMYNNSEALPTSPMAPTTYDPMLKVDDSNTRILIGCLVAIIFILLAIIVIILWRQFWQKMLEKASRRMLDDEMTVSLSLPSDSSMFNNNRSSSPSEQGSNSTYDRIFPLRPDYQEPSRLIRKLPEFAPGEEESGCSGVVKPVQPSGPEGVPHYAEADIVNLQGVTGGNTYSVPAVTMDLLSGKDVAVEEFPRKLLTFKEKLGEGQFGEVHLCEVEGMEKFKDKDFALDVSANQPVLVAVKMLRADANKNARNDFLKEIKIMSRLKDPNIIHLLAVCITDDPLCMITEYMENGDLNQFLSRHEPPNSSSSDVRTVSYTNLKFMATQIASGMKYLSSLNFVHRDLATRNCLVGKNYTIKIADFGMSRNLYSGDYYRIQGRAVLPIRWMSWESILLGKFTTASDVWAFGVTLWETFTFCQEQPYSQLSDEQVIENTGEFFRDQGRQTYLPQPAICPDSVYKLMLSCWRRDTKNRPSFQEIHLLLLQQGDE

Blood [4] = assay: Inhibition of LPS-induced TNFalpha production in human whole blood at 10 uM preincubated for 15 mins followed by LPS stimulation and measured after 2.5 hrs by ELISA relative to control; assay type: functional
[5] = biological target: Epithelial discoidin domain-containing receptor 1 (Homo sapiens, UniProt Q08345); assay: Inhibition of DDR1 (unknown origin) expressed in human HEK293 cells incubated for 2 hrs followed by NanoBRET NanoGlo Substrate addition by NanoBRET assay; assay type: cell-based
Blood [6] = assay: Inhibition of LPS-induced TNFalpha production in human whole blood preincubated for 15 mins followed by LPS stimulation and measured after 2.5 hrs by ELISA; assay type: functional, tissue-based
[7] = biological target: Mitogen-activated protein kinase 14 (Homo sapiens, UniProt Q16539); assay: Inhibition of full-length human C-terminal NanoLuc-tagged P38 alpha MAPK expressed in human HEK293T cells incubated for 2 hrs followed by NanoBRET NanoGlo Substrate addition by NanoBRET assay; assay type: cell-based
[8] = biological target: T2, Myosin light chain kinase family member 4 (Homo sapiens, UniProt Q86YV6); assay: Inhibition of MYLK4 (unknown origin) expressed in human HEK293 cells incubated for 2 hrs followed by NanoBRET NanoGlo Substrate addition by NanoBRET assay; assay type: cell-based
T2 sequence (Q86YV6 whole entry): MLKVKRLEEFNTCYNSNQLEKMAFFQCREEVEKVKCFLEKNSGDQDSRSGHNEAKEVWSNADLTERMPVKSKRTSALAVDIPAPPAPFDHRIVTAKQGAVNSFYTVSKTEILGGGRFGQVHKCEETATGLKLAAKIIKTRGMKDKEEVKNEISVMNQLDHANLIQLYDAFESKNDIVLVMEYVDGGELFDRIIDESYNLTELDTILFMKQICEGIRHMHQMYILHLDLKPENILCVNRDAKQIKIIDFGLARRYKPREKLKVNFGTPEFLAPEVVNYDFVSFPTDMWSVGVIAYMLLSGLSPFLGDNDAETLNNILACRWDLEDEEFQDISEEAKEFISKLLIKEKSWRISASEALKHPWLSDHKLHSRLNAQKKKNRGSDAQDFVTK

[9] = biological target: Mast/stem cell growth factor receptor Kit (Homo sapiens, UniProt P10721); assay: Inhibition of KIT (unknown origin) expressed in human HEK293 cells incubated for 2 hrs followed by NanoBRET NanoGlo Substrate addition by NanoBRET assay; assay type: cell-based
Chain of Mast/stem cell growth factor receptor Kit (P10721 whole entry): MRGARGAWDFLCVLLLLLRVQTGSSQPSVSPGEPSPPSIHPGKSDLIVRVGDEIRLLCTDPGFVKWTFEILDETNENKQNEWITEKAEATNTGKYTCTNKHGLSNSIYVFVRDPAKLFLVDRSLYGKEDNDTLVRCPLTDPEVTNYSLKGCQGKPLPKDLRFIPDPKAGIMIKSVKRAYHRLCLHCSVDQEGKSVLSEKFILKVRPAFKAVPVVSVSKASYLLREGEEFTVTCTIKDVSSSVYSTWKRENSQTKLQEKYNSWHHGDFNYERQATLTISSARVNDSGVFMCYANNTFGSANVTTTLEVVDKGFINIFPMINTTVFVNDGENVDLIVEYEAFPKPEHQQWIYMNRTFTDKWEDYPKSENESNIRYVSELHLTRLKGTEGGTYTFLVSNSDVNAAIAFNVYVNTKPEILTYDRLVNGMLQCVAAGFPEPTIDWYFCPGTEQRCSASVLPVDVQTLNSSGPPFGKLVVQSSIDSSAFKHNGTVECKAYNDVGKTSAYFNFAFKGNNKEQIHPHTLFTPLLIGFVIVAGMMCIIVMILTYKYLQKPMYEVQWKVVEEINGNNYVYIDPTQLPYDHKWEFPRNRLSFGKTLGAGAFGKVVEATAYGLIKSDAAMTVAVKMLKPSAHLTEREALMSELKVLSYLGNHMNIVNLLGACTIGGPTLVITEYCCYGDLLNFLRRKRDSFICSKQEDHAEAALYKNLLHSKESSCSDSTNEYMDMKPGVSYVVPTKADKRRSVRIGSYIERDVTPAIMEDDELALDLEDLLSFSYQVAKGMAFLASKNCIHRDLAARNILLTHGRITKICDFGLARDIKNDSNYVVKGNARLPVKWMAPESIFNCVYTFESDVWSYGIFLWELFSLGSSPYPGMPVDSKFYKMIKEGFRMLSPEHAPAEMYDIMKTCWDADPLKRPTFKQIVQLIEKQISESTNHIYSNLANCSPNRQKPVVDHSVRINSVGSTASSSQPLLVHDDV

Chain of Epithelial discoidin domain-containing receptor 1 (Q08345 whole entry, the tested form may be a part): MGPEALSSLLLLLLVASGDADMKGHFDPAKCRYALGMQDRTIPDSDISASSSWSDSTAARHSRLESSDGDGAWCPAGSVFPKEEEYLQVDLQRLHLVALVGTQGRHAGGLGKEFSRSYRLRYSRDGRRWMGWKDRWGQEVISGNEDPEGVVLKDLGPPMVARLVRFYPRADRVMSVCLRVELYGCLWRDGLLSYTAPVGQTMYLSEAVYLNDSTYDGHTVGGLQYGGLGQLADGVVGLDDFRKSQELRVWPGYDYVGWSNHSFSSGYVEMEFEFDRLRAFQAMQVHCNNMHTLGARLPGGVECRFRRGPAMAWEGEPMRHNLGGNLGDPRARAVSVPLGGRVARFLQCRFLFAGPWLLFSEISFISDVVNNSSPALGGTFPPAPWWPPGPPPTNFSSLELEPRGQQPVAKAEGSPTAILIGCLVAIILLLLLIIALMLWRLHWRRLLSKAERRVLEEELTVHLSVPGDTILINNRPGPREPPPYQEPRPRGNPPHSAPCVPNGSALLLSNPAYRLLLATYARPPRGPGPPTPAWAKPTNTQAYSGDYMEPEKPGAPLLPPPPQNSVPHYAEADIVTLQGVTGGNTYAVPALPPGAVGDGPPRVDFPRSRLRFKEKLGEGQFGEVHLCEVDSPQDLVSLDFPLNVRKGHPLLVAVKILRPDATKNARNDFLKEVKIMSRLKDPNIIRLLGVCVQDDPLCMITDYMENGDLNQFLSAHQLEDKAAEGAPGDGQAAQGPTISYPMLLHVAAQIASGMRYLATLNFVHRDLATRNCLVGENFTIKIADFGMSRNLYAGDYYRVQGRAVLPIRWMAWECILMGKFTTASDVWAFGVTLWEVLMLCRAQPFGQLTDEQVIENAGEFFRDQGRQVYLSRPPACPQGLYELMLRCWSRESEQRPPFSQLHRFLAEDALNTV
Chain of Mitogen-activated protein kinase 11 (Q15759 whole entry, the tested form may be a part): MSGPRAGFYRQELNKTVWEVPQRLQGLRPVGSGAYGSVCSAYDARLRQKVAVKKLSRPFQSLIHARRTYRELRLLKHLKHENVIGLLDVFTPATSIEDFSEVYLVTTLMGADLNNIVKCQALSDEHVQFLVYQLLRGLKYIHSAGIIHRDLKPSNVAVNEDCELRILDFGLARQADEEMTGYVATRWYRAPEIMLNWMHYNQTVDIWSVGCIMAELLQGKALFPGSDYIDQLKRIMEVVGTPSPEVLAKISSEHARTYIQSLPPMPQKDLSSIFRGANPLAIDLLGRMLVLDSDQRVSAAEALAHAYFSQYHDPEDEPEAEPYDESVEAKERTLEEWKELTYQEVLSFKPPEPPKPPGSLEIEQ
Chain of Ribosomal protein S6 kinase alpha-6 (Q9UK32 whole entry, the tested form may be a part): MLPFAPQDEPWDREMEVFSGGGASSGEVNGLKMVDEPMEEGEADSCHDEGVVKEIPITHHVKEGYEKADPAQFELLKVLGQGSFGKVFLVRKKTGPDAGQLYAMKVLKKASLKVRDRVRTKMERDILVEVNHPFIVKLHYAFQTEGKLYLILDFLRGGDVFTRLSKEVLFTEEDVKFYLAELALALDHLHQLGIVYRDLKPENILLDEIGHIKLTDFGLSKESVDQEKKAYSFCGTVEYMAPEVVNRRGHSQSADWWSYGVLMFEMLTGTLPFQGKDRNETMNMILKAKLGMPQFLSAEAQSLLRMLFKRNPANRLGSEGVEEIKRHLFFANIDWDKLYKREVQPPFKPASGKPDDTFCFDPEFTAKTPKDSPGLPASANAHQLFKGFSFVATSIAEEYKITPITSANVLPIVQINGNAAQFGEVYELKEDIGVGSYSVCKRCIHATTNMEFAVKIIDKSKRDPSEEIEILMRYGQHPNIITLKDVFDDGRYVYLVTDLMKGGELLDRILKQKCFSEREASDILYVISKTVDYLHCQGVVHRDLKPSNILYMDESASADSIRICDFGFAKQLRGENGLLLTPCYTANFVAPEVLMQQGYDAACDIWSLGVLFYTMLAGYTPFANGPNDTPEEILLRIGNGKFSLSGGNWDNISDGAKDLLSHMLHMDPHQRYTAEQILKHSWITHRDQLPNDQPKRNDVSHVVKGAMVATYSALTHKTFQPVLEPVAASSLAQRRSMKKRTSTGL
Chain of Mitogen-activated protein kinase 14 (Q16539 whole entry): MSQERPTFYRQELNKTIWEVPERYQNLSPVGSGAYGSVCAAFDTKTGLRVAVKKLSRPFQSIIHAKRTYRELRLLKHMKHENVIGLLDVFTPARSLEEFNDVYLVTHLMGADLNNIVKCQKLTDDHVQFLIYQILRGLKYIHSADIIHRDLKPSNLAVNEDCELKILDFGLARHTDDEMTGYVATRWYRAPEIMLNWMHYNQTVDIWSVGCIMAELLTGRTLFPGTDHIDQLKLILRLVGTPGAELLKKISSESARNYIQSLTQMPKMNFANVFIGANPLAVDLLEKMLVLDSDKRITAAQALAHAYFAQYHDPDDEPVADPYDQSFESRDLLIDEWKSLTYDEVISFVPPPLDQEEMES

**Q.** How did the IC50 [1] turn out when `O=C(NCCCC1CCCCC1)c1ccc(CNC(=O)c2cnn(-c3ccccc3)c2C(F)(F)F)cc1` [SR-321] was run?
**A.** > 20 µM

**Q.** What about the IC50 [2] of the same molecule?
**A.** 11 µM

**Q.** And the IC50 [3]?
**A.** 0.22 µM

**Q.** What about the inhibition at 10 µM (Blood [4]) of the same molecule?
**A.** 6.35%

**Q.** What about the IC50 [5] of the same molecule?
**A.** 13 µM

**Q.** And the IC50 (Blood [6])?
**A.** > 10 µM

**Q.** And the IC50 [7]?
**A.** 13 µM

**Q.** What about the IC50 [8] of the same molecule?
**A.** > 20 µM

**Q.** What about the IC50 [9] of the same molecule?
**A.** > 20 µM
